Like-named read-outs stand apart in the source and are kept apart here.
What was measured:
IRE1α = molecular target: T1, IRE1α (Mus musculus, UniProt Q9EQY0); assay: Liver PD screening assay: XBP-1 splicing analysis of liver after tunicamycin (Example 25); assay type: in vivo, BALB/c mice
T1 construct: from tissue; host or cells: liver of BALB/c mice (in vivo)
Description: Example 25 was related to comparative PD/PK data of Orin 1001 VS compound 4315, as its structure shown below, which is an earlier lead of this series of compounds. Tunicamycin was used herein to activate IRE1, then Orin 1001 (also called 4485) or 4315 were given to inhibit the activating effect. […] Each gel panel represents one mouse liver sample as in the figure.
BALB/c mice were injected intraperitoneally with 100 microliters at an equivalent dose of 1 mg/kg tunicamycin solution. Two hours after tunicamycin injection, mice were dosed with compound of interest either PO or IV. Following 2 hours for PO delivery of compound, mice were euthanized according to IACUC protocols using CO2 from a […] source. A 1 cm^3 fragment of the liver for homogenization and extraction of the RNA were collected for further analysis. Total RNA is harvested from cells or tissue using TRIzol according to the manufacturer's procedures. After ethanol precipitation and resuspension of the RNA, RiboGreen (Invitrogen) is used to quantify the yield and normalize the RNA concentration in the source tube containing isolated RNA. RT-PCR is performed by Oligo(dT) priming, and SuperScript II (Invitrogen) transcription using the Amplitaq Gold Kit (Applied Biosystems) according to the manufacturer's protocols. Primers for human XBP-1 are 5_-[…]-3_ (forward, Seq ID No. 8) and 5_-[…]-3_ (reverse, Seq ID No. 9), and for mouse are 5_-[…]-3_ (forward, Seq ID No. 10) and 5_-[…]-3 (Seq ID No. 11). All DNA oligos were purchased from IDT DNA Technologies. PCR is run on a Bio-Rad PTC-100 96-well thermocycler with heating at 94° C. for 30 s, annealing at 58° C. for 30 s, and polymerizing at 72° C. for 30 s for 35 cycles. Reactions are run on 4% precast NuSieve gels from Cambrex and visualized by ethidium bromide staining and UV excitation.
(§1) All PK experiments are standard tests that performed in either WuXi PharmaTech or Charels River Laboratory. 4315 and 4485 (Orin 1001) were dosed PO as a suspension in 1% microcellulose (Sigma) and 50% Sucrouse (Sigma).

[1] = Oral bioavailability test, mouse; conditions: in vivo, 5 mg/kg dose
Description: as §1

[2] = Oral bioavailability test, rat; conditions: in vivo, 10 mg/kg dose
Description: as §1

[3] = Oral bioavailability test, dog; conditions: in vivo, 10 mg/kg dose
Description: as §1

T1 sequence (Q9EQY0 21-977): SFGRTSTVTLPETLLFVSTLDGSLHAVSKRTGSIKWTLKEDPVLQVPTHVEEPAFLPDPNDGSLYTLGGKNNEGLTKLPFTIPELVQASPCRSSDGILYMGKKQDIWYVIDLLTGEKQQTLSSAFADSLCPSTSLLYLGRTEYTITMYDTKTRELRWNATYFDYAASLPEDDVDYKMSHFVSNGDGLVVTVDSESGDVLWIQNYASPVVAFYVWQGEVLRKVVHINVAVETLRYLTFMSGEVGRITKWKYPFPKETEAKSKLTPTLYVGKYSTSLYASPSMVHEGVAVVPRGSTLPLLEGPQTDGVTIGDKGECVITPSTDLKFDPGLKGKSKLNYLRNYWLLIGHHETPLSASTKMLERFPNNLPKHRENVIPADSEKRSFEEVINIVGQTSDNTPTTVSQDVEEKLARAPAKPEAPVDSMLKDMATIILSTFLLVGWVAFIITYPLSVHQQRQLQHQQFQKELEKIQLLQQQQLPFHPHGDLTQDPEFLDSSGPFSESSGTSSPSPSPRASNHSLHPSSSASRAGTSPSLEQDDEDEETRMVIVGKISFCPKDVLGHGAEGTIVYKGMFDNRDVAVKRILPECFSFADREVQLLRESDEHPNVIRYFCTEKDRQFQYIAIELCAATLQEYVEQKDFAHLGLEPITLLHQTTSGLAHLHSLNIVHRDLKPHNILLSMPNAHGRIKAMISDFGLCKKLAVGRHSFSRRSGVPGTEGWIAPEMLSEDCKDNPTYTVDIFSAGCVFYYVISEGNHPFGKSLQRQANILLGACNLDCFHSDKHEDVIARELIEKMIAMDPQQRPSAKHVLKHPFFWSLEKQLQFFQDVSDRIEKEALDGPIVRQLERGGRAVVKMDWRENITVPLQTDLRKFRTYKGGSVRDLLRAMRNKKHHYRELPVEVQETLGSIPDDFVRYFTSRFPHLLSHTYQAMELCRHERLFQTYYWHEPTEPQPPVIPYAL

Cc1c(-c2ccc(C(=O)NCCN3CCOCC3)cc2)c(=O)oc2c(C=O)c(O)ccc12 [compound 4315]
ED50 (IRE1α; read-out: ED50 (inhibition of XBP-1 splicing in liver), PO, 2 hours after tunicamycin 1 mg/kg ip, liver 2 hours after dosing, FIG. 23): > 10 mg/kg
ED50 (IRE1α; read-out: ED50 (inhibition of XBP-1 splicing in liver), separate experiment): 50 mg/kg
bioavailability [1]: 23%
bioavailability [2]: 36%
bioavailability [3]: 17%
